Results on 21 compounds are retold here after US10988477B2 (Merck Patent GmbH, priority 2018, dated 2021).

The subject of assay [1] is primary human pan T-cells. The assay is described as follows: Human IL-2 assay for GCN2 inhibition (IL-2 secretion by T cells in low amino acid condition). Format: cell-based. The conditions noted are these: T-cell; IL-2 secretion from human T cells, anti-CD3/CD28 stimulation, 96 hours; read-out: IL2/T-cell EC50. The source says: Tumor microenvironment is profoundly immuno-suppressive. This may be attributed to the depletion of amino acids (like arginine and tryptophan) which triggers the activation of GCN2 in immune cells, including T cell and myeloid cells. In T cells, activation of GCN2 leads to reduce effector functions of CD8 T cells and induction and/or maintenance of immuno-suppressive T-regs. Inhibition of that immuno-suppressive response by GCN2 inhibitors enables an anti-cancer immune response by activating effector T-cells. Herein we describe an in-vitro system we established using human T-cells stimulated in low amino acid condition in order to engage the GCN2 biology. The method described involves the modulation of IL-2 levels secreted by human T cells in responses to the GCN2 inhibitors disclosed herein.
Amino acid-free RPMI was reconstituted with all but one of the amino acids found in standard RMPI (e.g. Arginine, Tryptophan), 10% charcoal-stripped fetal bovine serum, 100 Units/mL penicillin and 0.1 mg/mL streptomycin. Primary human pan T-cells were isolated using Pan T Cell Isolation Kit, human (MACS Miltenyi biotech Cat #Order no. 130-096-535) from apheresis cones and 5×104 pan T-cells per well. The purified T cells are seeded in Nunc™ 96-Well Polystyrene Round Bottom Microwell Plates (the cells are rested in No TRP media in a 15 ml falcon tube in the incubator for 30-45 minutes while titrations for tryptophan and the GCN2 inhibitor compound are made) A plate matrix was developed to titrate both a GCN2 inhibitor and the amino acid of interest ranging from “No Amino Acid” condition, up to the concentration found in the regular RPMI media (20 μM for TRP and 950 μM for Arginine). The cells were incubated for 30 min at 37° C. with the GCN2 inhibitor and then stimulated with 5×104 anti-CD3/CD28 Dynabeads® per well. After 96 hours of incubation the IL-2 level in the supernatant were measured using ELISA (R&D systems Cat #DY202 (Human IL-2 DuoSet ELISA). Data were plotted in GraphPad Prism software and EC50 is calculated.

Assay [2] addresses GCN2 kinase (Homo sapiens, UniProt Q9P2K8). The experiment in a line: GCN2 enzyme inhibition assay (Transcreener ADP2 fluorescence polarization). The format is biochemical. Particulars: 280 μM ATP, 4 nM GCN2 kinase. An outline of the steps: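 FP detection of ADP (antibody plus Alexa633 tracer) after a 1 h, 25 °C kinase reaction. Enzyme 4 nM, ATP 280 μM, (RS)7 peptide 200 μM, Tris pH 7.5 buffer with MgCl2 and DTT. Percent inhibition fitted by non-linear tight-binding algorithm for IC50 and Ki(app).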

Assay [3] has as its target intracellular GCN2 (phosphorylation of the GCN2 substrate eIF2α) (Homo sapiens, UniProt Q9P2K8). The assay is described as follows: GCN2 cellular inhibition assay (AlphaScreen SureFire P-eIF2α Ser51, borrelidin-treated U2OS cells). The conditions noted are these: compounds of Formula IV; biomarker assay, phosphorylated eIF2α Ser51 in borrelidin-treated U2OS cells. Format: cell-based. In short, it runs like this: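 Phospho-eIF2α (Ser51) in lysates was quantified by AlphaScreen SureFire after a 1 h, 37 °C treatment of U2OS cells with 10 μM borrelidin and compound at 4-fold dilutions starting from 40 μM final. Inhibition expressed in percent against wells stimulated by borrelidin alone.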
On the technique in general: Alpha assays give light when donor and acceptor beads are brought close together.

Sequence of intracellular GCN2 (phosphorylation of the GCN2 substrate eIF2α) (Q9P2K8 whole entry): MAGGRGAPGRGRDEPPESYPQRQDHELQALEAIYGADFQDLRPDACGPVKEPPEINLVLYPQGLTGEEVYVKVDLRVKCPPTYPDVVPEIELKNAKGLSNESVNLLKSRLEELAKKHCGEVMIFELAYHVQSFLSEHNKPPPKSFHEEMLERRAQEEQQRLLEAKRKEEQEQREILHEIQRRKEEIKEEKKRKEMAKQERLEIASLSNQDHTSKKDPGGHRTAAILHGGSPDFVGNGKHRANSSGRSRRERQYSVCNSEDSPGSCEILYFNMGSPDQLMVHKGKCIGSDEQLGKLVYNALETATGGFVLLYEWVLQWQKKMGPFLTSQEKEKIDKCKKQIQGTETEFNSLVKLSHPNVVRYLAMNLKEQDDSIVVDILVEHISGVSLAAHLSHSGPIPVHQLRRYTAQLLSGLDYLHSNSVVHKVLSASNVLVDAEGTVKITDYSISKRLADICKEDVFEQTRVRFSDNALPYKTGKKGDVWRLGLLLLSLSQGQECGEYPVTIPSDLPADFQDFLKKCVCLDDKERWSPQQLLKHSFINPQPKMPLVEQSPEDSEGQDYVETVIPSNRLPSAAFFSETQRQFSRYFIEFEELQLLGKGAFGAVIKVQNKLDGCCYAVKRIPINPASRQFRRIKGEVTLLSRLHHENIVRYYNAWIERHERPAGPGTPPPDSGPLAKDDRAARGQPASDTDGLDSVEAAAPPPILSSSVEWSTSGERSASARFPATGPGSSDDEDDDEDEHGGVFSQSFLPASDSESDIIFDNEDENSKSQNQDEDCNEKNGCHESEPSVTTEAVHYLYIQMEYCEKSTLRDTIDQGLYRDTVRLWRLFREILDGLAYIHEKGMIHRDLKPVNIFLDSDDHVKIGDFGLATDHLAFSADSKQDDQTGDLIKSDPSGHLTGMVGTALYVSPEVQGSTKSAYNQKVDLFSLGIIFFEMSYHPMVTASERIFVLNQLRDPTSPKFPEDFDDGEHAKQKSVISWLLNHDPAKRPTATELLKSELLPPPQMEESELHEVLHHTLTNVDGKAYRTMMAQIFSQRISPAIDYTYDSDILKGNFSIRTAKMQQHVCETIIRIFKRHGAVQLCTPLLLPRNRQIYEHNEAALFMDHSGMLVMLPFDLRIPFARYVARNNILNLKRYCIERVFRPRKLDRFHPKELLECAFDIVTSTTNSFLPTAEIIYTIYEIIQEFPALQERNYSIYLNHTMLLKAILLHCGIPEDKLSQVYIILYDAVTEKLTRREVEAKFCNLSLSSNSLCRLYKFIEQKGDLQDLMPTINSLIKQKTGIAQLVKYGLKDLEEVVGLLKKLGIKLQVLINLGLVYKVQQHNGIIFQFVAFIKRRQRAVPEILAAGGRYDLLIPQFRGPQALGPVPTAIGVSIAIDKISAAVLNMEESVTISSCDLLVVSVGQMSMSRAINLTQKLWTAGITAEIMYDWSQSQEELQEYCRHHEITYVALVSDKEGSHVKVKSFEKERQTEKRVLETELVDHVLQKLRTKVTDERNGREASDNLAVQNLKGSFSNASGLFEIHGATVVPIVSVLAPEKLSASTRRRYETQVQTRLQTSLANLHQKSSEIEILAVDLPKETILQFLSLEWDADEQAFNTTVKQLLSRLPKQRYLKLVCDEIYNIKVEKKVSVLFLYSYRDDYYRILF
Sequence of GCN2 kinase (Q9P2K8 whole entry): as above

As for `C[C@H]1[C@@H](CNS(C)(=O)=O)CCCN1c1cc(-c2cnc3ccc(C(F)F)nn23)ncn1` (stereo in doubt) [II-755, N-(((2S,3R)-1-(6-(6-(difluoromethyl)imidazo[1,2-b]pyridazin-3-yl)pyrimidin-4-yl)-2-methylpiperidin-3-yl)methyl)methanesulfonamide], the EC50 in assay [1] fell in the range of 100 to 500 nM. Further, the IC50 – broadly, the concentration at which inhibition is half-maximal – in assay [2] (compounds of Formula II) is over 1000 nM.
With `C[C@H]1C[C@@H](NS(C)(=O)=O)CN(c2cc(-c3cnc4ccc(C(F)F)nn34)ncn2)C1` (stereo in doubt) [II-777, N-((3R,5S)-1-(6-(6-(difluoromethyl)imidazo[1,2-b]pyridazin-3-yl)pyrimidin-4-yl)-5-methylpiperidin-3-yl)methanesulfonamide], the EC50 in assay [1] lay in the range of 100 to 500 nM.
Still for that read-out and setting: then `C[C@H]1CC(F)(F)C(CNS(C)(=O)=O)CN1c1cc(-c2cnc3ccc(C(F)F)nn23)ncn1` (stereo in doubt) [II-778, N-(((3R,6S)-1-(6-(6-(difluoromethyl)imidazo[1,2-b]pyridazin-3-yl)pyrimidin-4-yl)-4,4-difluoro-6-methylpiperidin-3-yl)methyl)methanesulfonamide], with over 500 nM.
Turning to `CS(=O)(=O)NC[C@@H]1CN(c2cc(-c3cnc4ccc(C(F)F)nn34)ncn2)C[C@H](C(F)(F)F)O1` [II-771, N-(((2S,6R)-4-(6-(6-(difluoromethyl)imidazo[1,2-b]pyridazin-3-yl)pyrimidin-4-yl)-6-(trifluoromethyl)morpholin-2-yl)methyl)methanesulfonamide], the EC50 in assay [1] was 100 to 500 nM. Further, the half-maximal inhibitory concentration (IC50) in assay [2] (compounds of Formula II) lay within 10 to 1000 nM.
On to `C[C@H](NS(C)(=O)=O)[C@@H]1CN(c2cc(-c3cnc4ccc(C(F)F)nn34)ncn2)CCO1` [II-772], for which the EC50 in assay [1] lay in the range of 100 to 500 nM. The compound further gave an IC50 in assay [2] (compounds of Formula II) of 10 to 1000 nM.
Take `C[C@H]1CN(c2cc(-c3cnc4ccc(C(F)F)nn34)ncn2)C[C@@H](CNS(C)(=O)=O)C1(F)F` [II-773, N-(((3S,5S)-1-(6-(6-(difluoromethyl)imidazo[1,2-b]pyridazin-3-yl)pyrimidin-4-yl)-4,4-difluoro-5-methylpiperidin-3-yl)methyl)methanesulfonamide]: the EC50 in assay [1] was under 100 nM.
Same read-out and setting: then `CS(=O)(=O)NC[C@H]1C[C@@H](C2CC2)CN(c2cc(-c3cnc4ccc(C(F)F)nn34)ncn2)C1` [II-774, N-(((3S,5S)-5-cyclopropyl-1-(6-(6-(difluoromethyl)imidazo[12-b]pyridazin-3-yl)pyrimidin-4-yl)piperidin-3-yl)methyl)methanesulfonamide], with under 100 nM; and `CS(=O)(=O)NCC1CN(c2cc(-c3cnc4ccc(C(F)F)nn34)ncn2)CC2(CC2)C1(F)F` (centres unmarked) [II-775, N-((5-(6-(6-(difluoromethyl)imidazo[1,2-b]pyridazin-3-yl)pyrimidin-4-yl)-8,8-difluoro-5-azaspiro[2.5]octan-7-yl)methyl)methanesulfonamide], with 100 to 500 nM.
For `CC1(C)CN(c2cc(-c3cnc4ccc(C(F)F)nn34)ncn2)C[C@@H](CNS(C)(=O)=O)O1` [II-776, (S)—N-((4-(6-(6-(difluoromethyl)imidazo[1,2-b]pyridazin-3-yl)pyrimidin-4-yl)-6,6-dimethylmorpholin-2-yl)methyl)methanesulfonamide], the EC50 in assay [1] was 100 to 500 nM.
On the same count and under the same terms, then `CS(=O)(=O)NCC1CCCN(c2cc(-c3cnc4ccc(C(F)F)nn34)cc(OC3CNC3)n2)C1` (centres unmarked) [II-779, N-((1-(6-(azetidin-3-yloxy)-4-(6-(difluoromethyl)imidazo[1,2-b]pyridazin-3-yl)pyridin-2-yl)piperidin-3-yl)methyl)methanesulfonamide], with over 500 nM.
As to `Cc1n[nH]cc1[C@H]1C[C@@H](C)CN(c2nccc(-c3cnc4cnc(C(F)(F)F)cn34)n2)C1` [IV-758, 3-(2-((3R,5R)-3-methyl-5-(3-methyl-1H-pyrazol-4-yl)piperidin-1-yl)pyrimidin-4-yl)-6-(trifluoromethyl)imidazo[1,2-a]pyrazine], the figures for the IC50 in assay [3] and in assay [2] (compounds of Formula IV) were under 500 nM and 10 to 1000 nM, respectively.
The corresponding values for `C[C@H]1C[C@H](c2c[nH]nc2F)CN(c2ccnc(-c3cnc4cnc(C(F)(F)F)cn34)n2)C1` [IV-764, 3-(4-((3R,5S)-3-(3-fluoro-1H-pyrazol-4-yl)-5-methylpiperidin-1-yl)pyrimidin-2-yl)-6-(trifluoromethyl)imidazo[1,2-a]pyrazine] are under 500 nM and 10 to 1000 nM.
`C[C@@H]1C[C@@H](c2c[nH]nc2F)CN(c2ccnc(-c3cnc4cnc(C(F)(F)F)cn34)n2)C1` [IV-765]: the IC50 in assay [3] is under 500 nM; in assay [2] (compounds of Formula IV) it was 10 to 1000 nM.
Turning to `C[C@@H]1C[C@H](c2c[nH]nc2F)CN(c2ccnc(-c3cnc4cnc(C(F)(F)F)cn34)n2)C1` [IV-766], the IC50 in assay [3] is under 500 nM; in assay [2] (compounds of Formula IV), 10 to 1000 nM.
The corresponding values for `C[C@@H]1C[C@@H](c2cn[nH]c2)CN(c2ccnc(-c3cnc4cnc(C(F)(F)F)cn34)n2)C1` [IV-769, 3-(4-((3R,5S)-3-methyl-5-(1H-pyrazol-4-yl)piperidin-1-yl)pyrimidin-2-yl)-6-(trifluoromethyl)imidazo[1,2-a]pyrazine] are under 500 nM and 10 to 1000 nM.
The corresponding values for `C[C@@H]1C[C@H](c2cn[nH]c2)CN(c2ccnc(-c3cnc4cnc(C(F)(F)F)cn34)n2)C1` [IV-770, 3-(4-((3R,5R)-3-methyl-5-(1H-pyrazol-4-yl)piperidin-1-yl)pyrimidin-2-yl)-6-(trifluoromethyl)imidazo[1,2-a]pyrazine] are under 500 nM and 10 to 1000 nM.
The corresponding values for `C[C@H]1C[C@@H](c2cn[nH]c2)CN(c2ccnc(-c3cnc4cnc(C(F)(F)F)cn34)n2)C1` [IV-771, 3-(4-((3S,5S)-3-methyl-5-(1H-pyrazol-4-yl)piperidin-1-yl)pyrimidin-2-yl)-6-(trifluoromethyl)imidazo[1,2-a]pyrazine] are under 500 nM and under 10 nM.
Regarding `C[C@@H]1C[C@H](N=S(C)(C)=O)CN(c2ccnc(-c3cnc4cnc(C(F)F)cn34)n2)C1` [IV-772, (((3S,5R)-1-(2-(6-(difluoromethyl)imidazo[1,2-a]pyrazin-3-yl)pyrimidin-4-yl)-5-methylpiperidin-3-yl)imino)dimethyl-16-sulfanone], the IC50 is 500 to 5000 nM in assay [3] and 10 to 1000 nM in assay [2] (compounds of Formula IV).
The corresponding values for `Cc1n[nH]cc1[C@H]1C[C@H](O)CN(c2ccnc(-c3cnc4cnc(C(F)(F)F)cn34)n2)C1` [IV-774, (3S,5R)-5-(3-methyl-1H-pyrazol-4-yl)-1-(2-(6-(trifluoromethyl)imidazo[1,2-a]pyrazin-3-yl)pyrimidin-4-yl)piperidin-3-ol] are over 5000 nM and 10 to 1000 nM.
The corresponding values for `Cc1n[nH]cc1[C@@H]1C[C@@H](O)CN(c2ccnc(-c3cnc4cnc(C(F)(F)F)cn34)n2)C1` [IV-775, (3R,5S)-5-(3-methyl-1H-pyrazol-4-yl)-1-(2-(6-(trifluoromethyl)imidazo[1,2-a]pyrazin-3-yl)pyrimidin-4-yl)piperidin-3-ol] are over 5000 nM and 10 to 1000 nM.
The corresponding values for `Cc1n[nH]cc1[C@@H]1C[C@H](O)CN(c2ccnc(-c3cnc4cnc(C(F)(F)F)cn34)n2)C1` [IV-777, (3S,5S)-5-(3-methyl-1H-pyrazol-4-yl)-1-(2-(6-(trifluoromethyl)imidazo[1,2-a]pyrazin-3-yl)pyrimidin-4-yl)piperidin-3-ol] are 500 to 5000 nM and 10 to 1000 nM.
